# In ChEMBL document CHEMBL1155266, “Synthesis and biological evaluation of new 4-carboxyl quinoline derivatives as cyclooxygenase-2 inhibitors” (Bioorg Med Chem, 2009):
# pIC50: −log10 of the molar value.
# Molecular target: T1, Prostaglandin G/H synthase 1 (Ovis aries, UniProt P05979)
# T1 sequence (P05979 whole entry): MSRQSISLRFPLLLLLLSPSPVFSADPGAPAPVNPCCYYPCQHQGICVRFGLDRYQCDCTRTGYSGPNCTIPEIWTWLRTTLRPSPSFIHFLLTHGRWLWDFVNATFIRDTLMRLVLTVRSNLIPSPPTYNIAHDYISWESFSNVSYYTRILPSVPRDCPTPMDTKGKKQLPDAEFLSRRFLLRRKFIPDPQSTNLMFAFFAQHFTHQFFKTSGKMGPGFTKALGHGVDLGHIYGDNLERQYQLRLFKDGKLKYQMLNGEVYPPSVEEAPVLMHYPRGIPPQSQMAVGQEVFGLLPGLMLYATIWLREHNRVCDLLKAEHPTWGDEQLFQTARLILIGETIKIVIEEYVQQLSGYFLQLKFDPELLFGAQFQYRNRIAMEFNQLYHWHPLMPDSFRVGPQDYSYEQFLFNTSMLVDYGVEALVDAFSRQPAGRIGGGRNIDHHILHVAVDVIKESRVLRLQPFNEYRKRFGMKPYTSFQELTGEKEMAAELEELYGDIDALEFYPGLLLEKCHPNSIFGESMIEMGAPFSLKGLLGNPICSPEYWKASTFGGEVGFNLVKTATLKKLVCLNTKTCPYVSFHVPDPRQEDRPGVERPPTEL
# Description: Inhibition of ovine COX1 by chemiluminescent enzyme assay
row,SMILES,pIC50
1,Cc1ccc2c(C(=O)O)cc(-c3ccc(S(C)(=O)=O)cc3)nc2c1C,4.84
2,CS(=O)(=O)c1ccc(-c2cc(C(=O)O)c3ccc4ccccc4c3n2)cc1,4.75
3,CS(=O)(=O)c1ccc(-c2cc(C(=O)O)c3cccc(-c4ccccc4)c3n2)cc1,4.83
4,CS(=O)(=O)c1ccc(-c2cc(C(=O)O)c3ccccc3n2)cc1,4.87
5,CS(=O)(=O)c1ccc(-c2cc(C(=O)O)c3ccc4c(c3n2)CCCC4)cc1,4.66
6,Cc1cccc2c(C(=O)O)cc(-c3ccc(S(C)(=O)=O)cc3)nc12,4.85
